Measurements published in US9499484B2, “Indole, indoline derivatives, compositions comprising them and uses thereof” (priority 2012, dated 2016).
Counter-ions that a name gives are not always drawn.

melting point [°C] | Compound
142 to 145 | CCN(C)C(=O)Oc1ccc2c(/C=C/C(=O)OC)c[nH]c2c1
49 to 52 | CCN(C)C(=O)Oc1ccc2c(CCC(=O)OC)cn(C)c2c1
218 to 220 | COc1ccc(N(C)C(=O)Oc2ccc3c(C=O)c[nH]c3c2)cc1
118 to 120 | O=C(O)CCc1c[nH]c2cccc(O)c12
35 to 40 | COC(=O)CCc1cn(C)c2cc(O)ccc12
84 to 87 | CCCCN(C)C(=O)Oc1ccc2cc[nH]c2c1
104 to 108 | COC(=O)CCC1CN(C)c2cc(O)ccc21 (stereo not shown) (as salt: hydrochloride)
153 to 156 | COC(=O)/C=C/c1c[nH]c2cccc(OCc3ccccc3)c12
150 to 155 | COC(=O)/C=C/c1cn(C)c2cc(OCc3ccccc3)ccc12
134 to 137 | COC(=O)/C=C/c1c[nH]c2c(OCc3ccccc3)cccc12
93 to 96 | COC(=O)CCc1c[nH]c2cc(O)ccc12
85 to 88 | CCN(C)C(=O)Oc1cccc2c1c(C=O)cn2C
157 to 161 | Cn1cc(CCC(=O)O)c2ccc(O)cc21
110 to 115 | COc1ccc(N(C)C(=O)Oc2ccc3c(C=O)cn(C)c3c2)cc1
168 to 173 | COc1ccc(N(C)C(=O)Oc2ccc3cc[nH]c3c2)cc1
89 to 94 | COC(=O)CCc1c[nH]c2c(O)cccc12
128 to 131 | CCN(C)C(=O)Oc1cccc2[nH]cc(/C=C/C(=O)OC)c12
161 to 163 | COc1ccc(N(C)C(=O)Oc2cccc3c2c(CCC(=O)O)cn3C)cc1
85 to 87 | CCOC(=O)CCc1c[nH]c2cccc(OC(=O)N(C)CC)c12
65 to 70 | CCCCN(C)C(=O)Oc1ccc2c(/C=C/C(=O)OC)cn(C)c2c1
122 to 125 | COC(=O)/C=C/c1cn(C)c2cccc(OCc3ccccc3)c12
90 to 95 | CCCCN(C)C(=O)Oc1ccc2c(C=O)cn(C)c2c1

melting point [°C] | Compound
123 to 124 | COC(=O)CCc1cn(C)c2cccc(O)c12
132 to 136 | CCN(C)C(=O)Oc1ccc2c(CCC(=O)O)c[nH]c2c1
98 to 101 | CCN(C)C(=O)Oc1cccc2c(CCC(=O)O)c[nH]c12
173 to 175 | COc1ccc(N(C)C(=O)Oc2cccc3[nH]cc(C=O)c23)cc1
93 to 95 | COC(=O)CCc1c[nH]c2cccc(O)c12
155 to 157 | COC(=O)/C=C/c1c[nH]c2cccc(OC(=O)N(C)c3ccc(OC)cc3)c12
113 to 115 | COc1ccc(N(C)C(=O)Oc2cccc3[nH]ccc23)cc1
163 to 164 | O=C(O)/C=C/c1c[nH]c2cccc(OCc3ccccc3)c12
105 to 108 | CCN(C)C(=O)Oc1ccc2cc[nH]c2c1
110 to 112 | COC(=O)CCc1cn(C)c2cccc(OC(=O)N(C)c3ccc(OC)cc3)c12
94 to 96 | CCN(C)C(=O)Oc1ccc2ccn(CCC(=O)OC)c2c1
42 to 45 | CCN(C)C(=O)Oc1cccc2c1ccn2C
120 to 125 | COC(=O)/C=C/c1cn(C)c2cc(OC(=O)N(C)c3ccc(OC)cc3)ccc12
174 to 178 | COC(=O)/C=C/c1c[nH]c2cc(OCc3ccccc3)ccc12
124 to 128 | CCN(C)C(=O)Oc1ccc2c(C=O)cn(C)c2c1
86 to 89 | CCCCN(C)C(=O)Oc1cccc2[nH]ccc12
194 to 196 | COc1ccc(N(C)C(=O)Oc2cccc3[nH]cc(CCC(=O)O)c23)cc1
105 to 110 | CCN(C)C(=O)Oc1ccc2c(/C=C/C(=O)OC)cn(C)c2c1
171 to 174 | CCN(C)C(=O)Oc1cccc2[nH]cc(/C=C/[N+](=O)[O-])c12
164 to 166 | CCN(C)C(=O)Oc1cccc2[nH]cc(/C=C/C(=O)O)c12
97 to 100 | CCN(C)C(=O)Oc1cccc2c1c(/C=C/C(=O)OC)cn2C
